In US9139568B2 (Merck Patent GmbH, priority 2011, dated 2015) one finds IC50 data, which are given here for five compounds.

One assay deals with P70S6K (Homo sapiens (Human), UniProt P23443, T412E). Put plainly: P70S6K Enzyme Assay. The class given is biochemical. Particulars: P70S6K T412E mutant, 24 μM ATP, mobility shift (Caliper). The procedure, abridged: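 Phosphorylated product and substrate peptide separated by microfluidic capillary electrophoresis (Caliper LabChip 3000), product peaks resolving before substrate.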

The next assay deals with AKT (Homo sapiens (Human), UniProt P31749). Put plainly: AKT Enyzme Assay. The class given is biochemical. Particulars: His-AKT (Full Length), 160 uM ATP, mobility shift (Caliper). How it is done: A TTP Mosquito liquid handling instrument is used to place 125 nl of the appropriate concentration of inhibitor in 100% DMSO (for a dose response curve calculation) into each well of a 384-well plate.
The reaction is incubated for 90 min at 25 C, and then stopped by the addition of 70 μl of Stop buffer (100 mM HEPES pH 7.5, 0.015% Brij-35, 10 mM EDTA (Sigma, E7889)).
The plate is read on a Caliper LC 3000 in an Off-Chip mobility shift assay format, using the following parameters for a 12-sipper chip: screening pressure −2.3 psi, upstream voltage −500, and downstream voltage −3000. These conditions cause unphosphorylated substrate and phosphorylated product peptide to resolve as separate peaks allowing direct measurement of percentage of conversion of substrate to product. The percent conversion can be plotted against concentration of inhibitor to produce a sigmoidal dose response curve, from which an IC50 can be calculated.

Sequence of AKT (P31749 whole entry): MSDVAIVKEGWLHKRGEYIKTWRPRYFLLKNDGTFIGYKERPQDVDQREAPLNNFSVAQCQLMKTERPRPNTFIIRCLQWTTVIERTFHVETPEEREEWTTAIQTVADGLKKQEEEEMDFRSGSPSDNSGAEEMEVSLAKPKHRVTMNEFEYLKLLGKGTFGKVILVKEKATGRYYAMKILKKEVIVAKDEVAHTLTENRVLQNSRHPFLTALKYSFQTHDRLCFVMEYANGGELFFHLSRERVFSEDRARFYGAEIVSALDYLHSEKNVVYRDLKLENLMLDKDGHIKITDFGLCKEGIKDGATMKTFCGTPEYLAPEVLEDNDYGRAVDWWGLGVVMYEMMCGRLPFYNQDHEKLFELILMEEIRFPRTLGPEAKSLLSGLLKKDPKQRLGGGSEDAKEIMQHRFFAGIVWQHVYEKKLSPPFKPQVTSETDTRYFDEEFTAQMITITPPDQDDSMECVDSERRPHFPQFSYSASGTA
Sequence of P70S6K (P23443 1-421 T412E): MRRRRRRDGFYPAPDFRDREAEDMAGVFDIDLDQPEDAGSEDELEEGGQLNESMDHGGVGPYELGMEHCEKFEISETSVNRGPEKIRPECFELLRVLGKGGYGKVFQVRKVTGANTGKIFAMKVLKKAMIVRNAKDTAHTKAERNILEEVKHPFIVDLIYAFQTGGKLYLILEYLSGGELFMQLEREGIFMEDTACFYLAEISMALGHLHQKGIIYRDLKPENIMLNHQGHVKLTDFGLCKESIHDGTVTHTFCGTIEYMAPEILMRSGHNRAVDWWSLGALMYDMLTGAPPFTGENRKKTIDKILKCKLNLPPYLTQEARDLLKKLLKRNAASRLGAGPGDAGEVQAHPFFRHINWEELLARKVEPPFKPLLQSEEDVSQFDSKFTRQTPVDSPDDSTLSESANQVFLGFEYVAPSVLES

The IC50 is the concentration needed to halve the response being measured. On to `CN(CCc1ccccc1)c1ccc(C(N)=O)c2ncncc12` [Example 103, 5-[methyl(phenethyl)amino]quinazoline-8-carboxamide], for which the IC50 was 0.22 µM on P70S6K and 14 µM at AKT.

For `NC(=O)c1ccc(N(CCc2ccccc2)[C@@H]2CCCNC2)c2cncnc12` [Example 105, 5-[phenethyl-[(3R)-3-piperidyl]amino]quinazoline-8-carboxamide], the IC50 is 11 µM on P70S6K and above 100 µM on AKT.

In the case of `NC(=O)c1ccc(N2CCN(c3ccc(F)cc3)CC2)c2cncnc12` [Example 108, 5-[4-(4-fluorophenyl)-piperazin-1-yl]-quinazoline-8-carboxylic acid amide], the half-inhibitory concentration (IC50) on P70S6K was 2.3 µM; on AKT, above 100 µM.

Consider `NC(=O)c1ccc(N2CCN(c3cccc(C(F)(F)F)c3)CC2)c2cncnc12` [Example 109, 5-[4-(3-trifluoromethylphenyl)-piperazin-1-yl]-quinazoline-8-carboxylic acid amide], for which the IC50 worked out at 11 µM at P70S6K and 23 µM at AKT.

Turning to `Cc1ccc(Cl)cc1N1CCN(c2ccc(C(N)=O)c3ncncc23)CC1` [Example 111, 5-[4-(5-chloro-2-methylphenyl)-piperazin-1-yl]-quinazoline-8-carboxylic acid amide], the concentration for half-maximal inhibition (IC50) on P70S6K and on AKT was above 100 µM throughout.
